Test results: ChEMBL document CHEMBL4507327 (2021)
Active and inactive are the calls of the source. The rule behind the calls is not given here.

How the values were obtained:
[1] = biological target: Mitogen-activated protein kinase kinase kinase 9 (Homo sapiens, UniProt P80192); assay: MLK1(M3K9LGF1) Takeda global kinase panel
[2] = biological target: Platelet-activating factor receptor (Homo sapiens) (UniProt P25105); assay: Platelet Activating Factor (PAF) Eurofins-Panlabs radioligand binding assay; set-up: ligand concentration 1 nM; conditions: Compound concentration 10.0 uM
[3] = biological target: Dual specificity protein kinase CLK3 (Homo sapiens, UniProt P49761); assay: CLK3(CLK3LGY1) Takeda global kinase panel
[4] = biological target: NT-3 growth factor receptor (Homo sapiens, UniProt Q16288); assay: TRKC(NTR3LGN1) Takeda global kinase panel
[5] = biological target: Serine/threonine-protein kinase D2 (Homo sapiens, UniProt Q9BZL6); assay: PKD2(PRD2LHY1) Takeda global kinase panel
Serine/threonine-protein kinase D2, sequence (Q9BZL6 whole entry): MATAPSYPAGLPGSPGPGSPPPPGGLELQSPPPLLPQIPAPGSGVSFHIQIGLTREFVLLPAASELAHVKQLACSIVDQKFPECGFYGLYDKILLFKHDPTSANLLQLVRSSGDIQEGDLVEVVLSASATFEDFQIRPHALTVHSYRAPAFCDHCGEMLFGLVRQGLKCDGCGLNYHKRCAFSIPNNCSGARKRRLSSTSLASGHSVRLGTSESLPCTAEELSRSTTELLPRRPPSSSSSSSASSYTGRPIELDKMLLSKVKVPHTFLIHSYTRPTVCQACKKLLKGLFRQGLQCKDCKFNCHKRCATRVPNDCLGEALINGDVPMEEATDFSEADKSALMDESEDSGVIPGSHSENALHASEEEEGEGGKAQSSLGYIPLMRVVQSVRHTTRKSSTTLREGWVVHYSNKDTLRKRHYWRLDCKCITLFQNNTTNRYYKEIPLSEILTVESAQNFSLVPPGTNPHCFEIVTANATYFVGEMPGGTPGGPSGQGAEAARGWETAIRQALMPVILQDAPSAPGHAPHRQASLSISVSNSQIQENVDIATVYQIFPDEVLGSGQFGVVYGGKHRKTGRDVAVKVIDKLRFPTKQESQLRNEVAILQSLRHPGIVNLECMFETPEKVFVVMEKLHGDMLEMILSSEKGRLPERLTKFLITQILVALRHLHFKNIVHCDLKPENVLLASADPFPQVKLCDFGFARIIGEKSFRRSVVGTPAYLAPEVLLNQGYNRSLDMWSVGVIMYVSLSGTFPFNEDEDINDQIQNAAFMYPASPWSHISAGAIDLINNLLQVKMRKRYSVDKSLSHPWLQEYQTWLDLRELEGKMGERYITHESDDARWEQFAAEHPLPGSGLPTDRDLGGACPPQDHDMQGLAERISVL

[6] = biological target: Tyrosine-protein kinase Tec (Homo sapiens, UniProt P42680); assay: TEC(TEC1CGD1) Takeda global kinase panel
[7] = biological target: T1, 5-hydroxytryptamine receptor 3A (Homo sapiens) (UniProt P46098); assay: Inhibition of Serotonin (5-Hydroxytryptamine) 5-HT3 at 10 µM in the Eurofins-Panlabs radioligand binding assay (Eurofins_assay_271910); set-up: ligand concentration 0.69 nM; conditions: Compound concentration 10.0 uM
T1 sequence (whole entry): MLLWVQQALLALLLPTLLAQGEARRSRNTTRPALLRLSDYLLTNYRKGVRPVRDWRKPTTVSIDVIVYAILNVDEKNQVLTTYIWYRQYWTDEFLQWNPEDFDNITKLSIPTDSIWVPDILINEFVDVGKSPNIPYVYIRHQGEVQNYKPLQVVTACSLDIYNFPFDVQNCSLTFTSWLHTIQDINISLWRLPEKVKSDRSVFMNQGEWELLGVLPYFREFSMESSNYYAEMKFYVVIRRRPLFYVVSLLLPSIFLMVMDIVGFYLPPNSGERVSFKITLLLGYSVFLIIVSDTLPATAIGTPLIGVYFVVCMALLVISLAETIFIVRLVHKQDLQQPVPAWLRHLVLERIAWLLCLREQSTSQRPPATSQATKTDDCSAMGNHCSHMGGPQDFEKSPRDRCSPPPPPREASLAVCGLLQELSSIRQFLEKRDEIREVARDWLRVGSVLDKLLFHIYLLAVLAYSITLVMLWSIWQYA

Activin receptor type-1 = Activin receptor type-1 (Homo sapiens, UniProt Q04771); assay: ALK2(ACV1LGF1) Takeda global kinase panel
[8] = biological target: RAC-beta serine/threonine-protein kinase (Homo sapiens, UniProt P31751); assay: Akt2 [PKBbeta(AKT2CGY1)] Takeda global kinase panel
[9] = biological target: Serine/threonine-protein kinase Sgk3 (Homo sapiens, UniProt Q96BR1); assay: SGK3(SGK3LGY1) Takeda global kinase panel
Serine/threonine-protein kinase Sgk3, sequence (Q96BR1 whole entry): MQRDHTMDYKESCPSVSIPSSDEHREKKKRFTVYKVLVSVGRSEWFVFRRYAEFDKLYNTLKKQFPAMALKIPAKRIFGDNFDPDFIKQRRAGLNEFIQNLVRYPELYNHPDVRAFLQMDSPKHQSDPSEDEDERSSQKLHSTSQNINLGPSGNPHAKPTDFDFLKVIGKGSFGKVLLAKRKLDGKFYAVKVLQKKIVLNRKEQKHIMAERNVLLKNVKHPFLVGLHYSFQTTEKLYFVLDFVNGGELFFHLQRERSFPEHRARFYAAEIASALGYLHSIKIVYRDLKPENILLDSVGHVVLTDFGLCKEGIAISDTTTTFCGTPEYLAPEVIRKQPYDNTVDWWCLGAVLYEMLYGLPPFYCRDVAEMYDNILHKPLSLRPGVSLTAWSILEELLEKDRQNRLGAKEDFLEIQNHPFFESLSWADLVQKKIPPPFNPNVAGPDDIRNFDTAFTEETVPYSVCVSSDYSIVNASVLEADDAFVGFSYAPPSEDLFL

Activated CDC42 kinase 1 = Activated CDC42 kinase 1 (Homo sapiens, UniProt Q07912); assay: Ack(TNK2LGF1) Takeda global kinase panel
Activated CDC42 kinase 1, sequence (Q07912 whole entry): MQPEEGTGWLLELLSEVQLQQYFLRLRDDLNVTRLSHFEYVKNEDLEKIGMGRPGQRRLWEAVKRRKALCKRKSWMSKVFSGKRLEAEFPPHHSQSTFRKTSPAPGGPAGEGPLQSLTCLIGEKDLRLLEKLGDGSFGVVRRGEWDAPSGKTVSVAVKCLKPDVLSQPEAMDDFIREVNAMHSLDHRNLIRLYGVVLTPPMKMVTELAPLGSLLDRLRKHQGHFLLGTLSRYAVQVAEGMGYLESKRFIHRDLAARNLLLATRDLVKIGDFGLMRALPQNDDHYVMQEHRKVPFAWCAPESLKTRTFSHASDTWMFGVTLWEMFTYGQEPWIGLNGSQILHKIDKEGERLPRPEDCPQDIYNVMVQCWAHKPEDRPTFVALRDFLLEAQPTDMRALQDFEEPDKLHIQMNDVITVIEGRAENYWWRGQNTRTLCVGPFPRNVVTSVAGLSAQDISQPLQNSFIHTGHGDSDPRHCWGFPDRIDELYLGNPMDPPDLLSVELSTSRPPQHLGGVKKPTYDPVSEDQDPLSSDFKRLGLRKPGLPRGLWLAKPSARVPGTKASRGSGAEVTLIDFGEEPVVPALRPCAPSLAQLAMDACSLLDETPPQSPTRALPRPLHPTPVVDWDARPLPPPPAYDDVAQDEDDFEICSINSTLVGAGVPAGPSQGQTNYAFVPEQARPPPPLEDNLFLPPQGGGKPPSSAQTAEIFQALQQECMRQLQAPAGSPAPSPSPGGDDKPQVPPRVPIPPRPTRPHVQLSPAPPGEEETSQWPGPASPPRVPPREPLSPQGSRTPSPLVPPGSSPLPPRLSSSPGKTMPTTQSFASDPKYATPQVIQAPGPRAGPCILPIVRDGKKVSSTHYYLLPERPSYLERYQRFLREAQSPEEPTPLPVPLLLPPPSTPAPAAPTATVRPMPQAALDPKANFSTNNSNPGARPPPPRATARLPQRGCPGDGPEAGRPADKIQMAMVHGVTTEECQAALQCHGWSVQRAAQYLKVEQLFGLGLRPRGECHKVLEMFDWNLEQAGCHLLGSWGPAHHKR

[10] = biological target: G protein-coupled receptor kinase 5 (Homo sapiens, UniProt P34947); assay: GRK5(GRK5LGP1) Takeda global kinase panel
G protein-coupled receptor kinase 5, sequence (P34947 whole entry): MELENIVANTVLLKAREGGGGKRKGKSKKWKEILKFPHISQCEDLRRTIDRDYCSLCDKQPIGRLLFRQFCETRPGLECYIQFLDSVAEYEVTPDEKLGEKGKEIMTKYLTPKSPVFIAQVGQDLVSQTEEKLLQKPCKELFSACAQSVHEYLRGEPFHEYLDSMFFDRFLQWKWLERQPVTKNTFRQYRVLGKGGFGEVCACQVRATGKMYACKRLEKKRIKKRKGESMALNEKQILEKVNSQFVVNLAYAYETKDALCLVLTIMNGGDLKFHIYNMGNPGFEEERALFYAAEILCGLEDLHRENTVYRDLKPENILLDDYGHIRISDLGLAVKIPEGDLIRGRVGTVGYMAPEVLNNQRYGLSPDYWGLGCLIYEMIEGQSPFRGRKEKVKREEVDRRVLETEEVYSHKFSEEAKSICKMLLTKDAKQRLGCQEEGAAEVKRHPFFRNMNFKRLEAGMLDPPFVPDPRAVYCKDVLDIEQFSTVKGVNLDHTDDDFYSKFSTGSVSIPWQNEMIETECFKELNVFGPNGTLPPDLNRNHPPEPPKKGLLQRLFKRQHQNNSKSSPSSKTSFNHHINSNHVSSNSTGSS

[11] = biological target: Rho-associated protein kinase 1 (Homo sapiens, UniProt Q13464); assay: ROCK1(ROC1LGY1) Takeda global kinase panel
[12] = biological target: NUAK family SNF1-like kinase 2 (Homo sapiens, UniProt Q9H093); assay: NuaK2(NUA2LHY1) Takeda global kinase panel
NUAK family SNF1-like kinase 2, sequence (Q9H093 whole entry): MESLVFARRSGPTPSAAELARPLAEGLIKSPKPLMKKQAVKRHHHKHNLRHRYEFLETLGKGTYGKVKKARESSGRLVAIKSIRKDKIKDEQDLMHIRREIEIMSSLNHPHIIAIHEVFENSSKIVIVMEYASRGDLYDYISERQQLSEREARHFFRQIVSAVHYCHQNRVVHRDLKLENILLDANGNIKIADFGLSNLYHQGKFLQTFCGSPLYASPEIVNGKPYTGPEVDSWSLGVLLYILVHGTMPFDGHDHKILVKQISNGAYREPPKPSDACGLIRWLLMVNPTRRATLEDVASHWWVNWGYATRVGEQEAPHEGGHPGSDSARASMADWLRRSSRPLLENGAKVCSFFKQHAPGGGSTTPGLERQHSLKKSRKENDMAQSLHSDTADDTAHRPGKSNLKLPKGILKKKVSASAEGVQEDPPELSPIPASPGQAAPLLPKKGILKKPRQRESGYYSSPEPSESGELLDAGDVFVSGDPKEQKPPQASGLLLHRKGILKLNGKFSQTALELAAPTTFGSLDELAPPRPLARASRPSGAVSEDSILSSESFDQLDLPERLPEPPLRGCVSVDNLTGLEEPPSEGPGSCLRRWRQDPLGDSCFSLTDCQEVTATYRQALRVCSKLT

[13] = biological target: Serine/threonine-protein kinase Nek11 (Homo sapiens, UniProt Q8NG66); assay: Nek11(NE11LGRI) Takeda global kinase panel
Serine/threonine-protein kinase Nek11, sequence (Q8NG66 whole entry): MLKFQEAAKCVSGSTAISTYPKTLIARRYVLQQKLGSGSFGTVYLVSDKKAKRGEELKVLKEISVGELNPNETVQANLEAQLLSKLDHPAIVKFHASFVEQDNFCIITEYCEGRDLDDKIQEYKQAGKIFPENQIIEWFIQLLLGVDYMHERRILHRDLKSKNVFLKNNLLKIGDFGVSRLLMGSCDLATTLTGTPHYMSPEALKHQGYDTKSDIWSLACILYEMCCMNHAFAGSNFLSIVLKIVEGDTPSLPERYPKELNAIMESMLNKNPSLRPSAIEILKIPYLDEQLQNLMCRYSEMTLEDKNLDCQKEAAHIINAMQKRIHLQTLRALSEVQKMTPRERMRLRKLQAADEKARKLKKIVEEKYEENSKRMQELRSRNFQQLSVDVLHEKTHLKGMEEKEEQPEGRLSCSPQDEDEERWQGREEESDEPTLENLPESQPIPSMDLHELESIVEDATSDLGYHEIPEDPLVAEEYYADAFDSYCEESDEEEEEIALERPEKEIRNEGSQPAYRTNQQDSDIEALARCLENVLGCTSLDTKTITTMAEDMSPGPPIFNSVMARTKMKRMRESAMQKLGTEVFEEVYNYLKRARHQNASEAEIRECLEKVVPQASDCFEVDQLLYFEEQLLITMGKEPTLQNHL

[14] = biological target: Beta-2 adrenergic receptor (Homo sapiens) (UniProt P07550); conditions: Compound concentration 10.0 uM
[15] = biological target: Non-receptor tyrosine-protein kinase TNK1 (Homo sapiens, UniProt Q13470); assay: Tnk1(TNK1LGY1) Takeda global kinase panel
[16] = biological target: Interleukin-1 receptor-associated kinase 3 (Homo sapiens, UniProt Q9Y616); assay: IRAK3(IRK3PFE1) Takeda global kinase panel
[17] = biological target: T2, 5-hydroxytryptamine receptor 1A (Homo sapiens) (UniProt P08908); conditions: Compound concentration 10.0 uM
T2 sequence (whole entry): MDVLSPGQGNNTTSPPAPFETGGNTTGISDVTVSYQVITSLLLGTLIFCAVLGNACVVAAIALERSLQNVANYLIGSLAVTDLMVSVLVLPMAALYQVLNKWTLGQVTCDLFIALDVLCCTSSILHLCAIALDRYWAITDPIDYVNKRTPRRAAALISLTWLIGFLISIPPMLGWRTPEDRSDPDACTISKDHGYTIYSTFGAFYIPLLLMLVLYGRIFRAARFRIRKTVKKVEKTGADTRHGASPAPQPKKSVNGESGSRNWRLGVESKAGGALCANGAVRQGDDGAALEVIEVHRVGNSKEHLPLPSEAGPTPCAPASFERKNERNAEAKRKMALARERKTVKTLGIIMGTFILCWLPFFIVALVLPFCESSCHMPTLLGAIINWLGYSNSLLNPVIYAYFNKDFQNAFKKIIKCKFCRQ

[18] = biological target: Receptor-interacting serine/threonine-protein kinase 1 (Mus musculus, UniProt Q60855); assay: TR-FRET (mouse RIPK1)
[19] = biological target: 3-phosphoinositide-dependent protein kinase 1 (Homo sapiens, UniProt O15530); assay: PDK1(PDP1LGA1) Takeda global kinase panel
[20] = biological target: Mitogen-activated protein kinase kinase kinase kinase 5 (Homo sapiens, UniProt Q9Y4K4); assay: KHS1(M4K5LGY1) Takeda global kinase panel
[21] = biological target: Serine/threonine-protein kinase TNNI3K (Homo sapiens, UniProt Q59H18); assay: HH498(TNNILGY1) Takeda global kinase panel
[22] = biological target: Tyrosine-protein kinase ABL2 (Homo sapiens, UniProt P42684); assay: Arg(ABL2LGF1) Takeda global kinase panel
[23] = biological target: Sodium-dependent serotonin transporter (Homo sapiens) (UniProt P31645); conditions: Compound concentration 10.0 uM
Sodium-dependent serotonin transporter (Homo sapiens), sequence (P31645 whole entry, looked up): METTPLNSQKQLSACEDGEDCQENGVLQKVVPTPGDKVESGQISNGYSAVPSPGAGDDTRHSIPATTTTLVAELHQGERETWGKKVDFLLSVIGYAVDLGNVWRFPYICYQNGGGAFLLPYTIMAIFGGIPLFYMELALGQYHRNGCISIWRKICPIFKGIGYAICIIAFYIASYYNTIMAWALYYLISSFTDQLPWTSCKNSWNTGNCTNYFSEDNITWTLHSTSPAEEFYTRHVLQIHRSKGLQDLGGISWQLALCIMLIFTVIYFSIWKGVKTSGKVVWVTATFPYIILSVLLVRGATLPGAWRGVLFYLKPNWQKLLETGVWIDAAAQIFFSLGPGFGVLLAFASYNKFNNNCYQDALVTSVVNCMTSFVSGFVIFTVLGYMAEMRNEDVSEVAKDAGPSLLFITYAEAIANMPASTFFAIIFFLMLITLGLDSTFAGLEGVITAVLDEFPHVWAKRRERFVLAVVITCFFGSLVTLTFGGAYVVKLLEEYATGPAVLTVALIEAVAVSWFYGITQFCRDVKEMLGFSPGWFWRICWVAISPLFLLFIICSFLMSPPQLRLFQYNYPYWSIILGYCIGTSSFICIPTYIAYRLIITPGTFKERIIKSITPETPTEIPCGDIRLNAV

[24] = biological target: Leukocyte tyrosine kinase receptor (Homo sapiens, UniProt P29376); assay: LTK(LTK1LGF1) Takeda global kinase panel
[25] = biological target: Beta-adrenergic receptor kinase 1 (Homo sapiens, UniProt P25098); assay: BARK1 [GRK2(ADR1LGG5)] Takeda global kinase panel
[26] = biological target: 5-hydroxytryptamine receptor 5A (Homo sapiens) (UniProt P47898); conditions: Compound concentration 10.0 uM
[27] = biological target: STE20-like serine/threonine-protein kinase (Homo sapiens, UniProt Q9H2G2); assay: SLK(SLK1LGRJ) Takeda global kinase panel
[28] = biological target: Bone morphogenetic protein receptor type-1A (Homo sapiens, UniProt P36894); assay: BMPR1A(BM1APHRG) Takeda global kinase panel
[29] = biological target: Serine/threonine-protein kinase PLK4 (Homo sapiens, UniProt O00444); assay: PLK4(PLK4LGF1) Takeda global kinase panel
Ephrin type-A receptor 1 = Ephrin type-A receptor 1 (Homo sapiens, UniProt P21709); assay: EphA1(EPA1LGY1) Takeda global kinase panel
Focal adhesion kinase 1 = Focal adhesion kinase 1 (Homo sapiens, UniProt Q05397); assay: FAK(PTK2LGF1) Takeda global kinase panel

| SMILES | IC50 [1] [nM] | IC50 [3] [nM] | IC50 [4] [nM] | IC50 [5] [nM] | IC50 [6] [nM] | inhibition [7] [%] | IC50 (Activin receptor type-1) [nM] | IC50 [8] [nM] | IC50 [9] [nM] | IC50 (Activated CDC42 kinase 1) [nM] | IC50 [10] [nM] | IC50 [11] [nM] | IC50 [12] [nM] | IC50 [13] [nM] | inhibition [14] [%] | IC50 [15] [nM] | IC50 [16] [nM] | inhibition [17] [%] | IC50 [18] | IC50 [19] [nM] | also measured |
| --- | --- | --- | --- | --- | --- | --- | --- | --- | --- | --- | --- | --- | --- | --- | --- | --- | --- | --- | --- | --- | --- |
| CN1C(=O)[C@@H](N2CCc3cn(Cc4ccccc4)nc3C2=O)COc2ccccc21 [TP-030-1] | 1000 | 1000 | 1000 | 1000 | 1000 | 6 | 1000 | 1000 | 1000 | 1000 | 1000 | 1000 | 1000 | 1000 | -4 | 1000 | 1000 | -6 | 4200 nM (active) | 1000 | inhibition [2]: 2%; IC50 [20]: 1000 nM; IC50 [21]: 1000 nM; IC50 [22]: 1000 nM; inhibition [23]: -4%; IC50 [24]: 1000 nM; IC50 [25]: 1000 nM; inhibition [26]: 21.1%; IC50 [27]: 1000 nM; IC50 [28]: 1000 nM; IC50 [29]: 1000 nM; IC50 (Ephrin type-A receptor 1): 1000 nM |
| CN1C(=O)[C@@H](N2CCc3cn(CC4CCS(=O)(=O)CC4)nc3C2=O)COc2ccccc21 [TP-030n] | 1000 | 1000 | 1000 | 1000 | 1000 | 16 | 1000 | 1000 | 1000 | 1000 | 1000 | 1000 | 1000 | 1000 | 4 | 1000 | 1000 | 3 | > 10000 nM (not active) | 1000 | IC50 (Focal adhesion kinase 1): 1000 nM; IC50 [20]: 1000 nM; IC50 [21]: 1000 nM; IC50 [22]: 1000 nM; inhibition [23]: 5%; IC50 [24]: 1000 nM; IC50 [25]: 1000 nM; IC50 [27]: 1000 nM; IC50 [28]: 1000 nM; IC50 [29]: 1000 nM; IC50 (Ephrin type-A receptor 1): 1000 nM |
